Laboratory results taken from article PMC5822683 (Inflammation, 2014).
Where a SMILES comes first, the peptide text is derived from it.

Assays:
[1] = ref [21], [48]; cited from earlier work
[2] = test system: LPS-stimulated isolated human neutrophils; details: 50 % donor plasma, 40 μg/ml
[3] = test system: animal models of acute inflammation / severe sepsis; details: cited from earlier work
[4] = test system: LPS-stimulated whole human blood; details: 40 μg/ml, LPS 1 μg/ml, 3 h at 37 °C
[5] = test system: leukocytes; details: ref [24]; cited from earlier work
[6] = test system: primary human monocytes; details: ref [28]; cited from earlier work
[7] = test system: human neutrophils stimulated by septic patient serum; details: ref [24], cited from earlier work
[8] = compared with human apoA-I; ref [37]; cited from earlier work
[9] = test system: rodents; details: compared with L-4F doses studied here (Fig. S4)
[10] = test system: lipopolysaccharide-binding protein (LBP); details: ref [21]; cited from earlier work
[11] = test system: paraoxonase 1; details: ref [20], [41]; cited from earlier work
[12] = test system: LPS-stimulated isolated human neutrophils
[13] = test system: IL-8-stimulated human neutrophils
[14] = test system: LPS-stimulated isolated human leukocytes; details: 40 μg/ml, LPS 1 μg/ml, n=3
[15] = test system: TNF-α-stimulated whole human blood; details: 40 μg/ml, human TNF-α 10 ng/ml, 6 h at 37 °C, n=4 (Fig. 2)
[16] = statement in the discussion, no reference given; cited from earlier work
[17] = test system: human monocyte-derived macrophages; details: ref [29]; cited from earlier work
[18] = test system: patients with high-risk cardiovascular disease; details: selected groups of patients with high-risk cardiovascular disease; ref [55], [56]; cited from earlier work

**Q.** For `CC(=O)N[C@@H](CC(=O)O)C(=O)N[C@@H](Cc1c[nH]c2ccccc12)C(=O)N[C@@H](Cc1ccccc1)C(=O)N[C@@H](CCCCN)C(=O)N[C@@H](C)C(=O)N[C@@H](Cc1ccccc1)C(=O)N[C@@H](Cc1ccc(O)cc1)C(=O)N[C@@H](CC(=O)O)C(=O)N[C@@H](CCCCN)C(=O)N[C@H](C(=O)N[C@@H](C)C(=O)N[C@@H](CCC(=O)O)C(=O)N[C@@H](CCCCN)C(=O)N[C@@H](Cc1ccccc1)C(=O)N[C@@H](CCCCN)C(=O)N[C@@H](CCC(=O)O)C(=O)N[C@@H](C)C(=O)N[C@@H](Cc1ccccc1)C(N)=O)C(C)C` [L-4F] (Ac-DWFKAFYDKVAEKFKEAF-NH2), which “interaction with LPS (co-localization of Bodipy-LPS and ^14C-L-4F in FPLC fractions)” value [1] is on record?
**A.** The value was “interaction of LPS and L-4F was strongly suggested”.

**Q.** What about the “effect on LPS-induced TNF-α levels” value ([2]; LPS 1 μg/ml, 30 min, 1 h, 3 h (Fig. 5A)) of the same compound?
**A.** Its value is “inhibit this effect (P<0.05 vs. LPS, for 30 min and 1 h, Fig. 5A)”.

**Q.** What about the “effect on LPS-mediated MPO elevation” value ([2]; LPS 1 μg/ml, 30 min, 1 h, 3 h (Fig. 5B)) of the same compound?
**A.** Its value is “only inhibitory effect of L-4F reaches statistical significance (P<0.05 vs. LPS, for 30 min and 3 h, Fig. 5B)”.

**Q.** And the “effect on LPS-mediated IL-6 increase” value ([2]; LPS 1 μg/ml, 3 h, cell media, n=3, ELISA (Fig. 6))?
**A.** The value was “significantly inhibits LPS-mediated IL-6 increase (P<0.05 vs. LPS)”.

**Q.** What about the “comparison with apoA-I, LPS-mediated increase in IL-6 levels” value ([2]; LPS-stimulated neutrophils) of the same compound?
**A.** The value was “tended to be superior in inhibiting LPS-mediated increase in IL-6 levels”.

**Q.** What about the “dose with high efficiency in animal models of severe sepsis” value ([3]; L-4F, ref [22]–[24]) of the same compound?
**A.** The value was 10 mg/kg.

**Q.** And the “effect in cecal ligation and puncture model of polymicrobial sepsis” value ([3]; cecal ligation and puncture, ref [22])?
**A.** The value was “has protective effects”.

**Q.** And the “effect in animal models of acute inflammation” value ([3]; ref [22]–[25])?
**A.** Its value is “reduces inflammatory response and improves survival”.

**Q.** And the “effect on inflammatory response to LPS (TNF-α and IL-6)” value ([4]; ELISA, n=4 (Fig. 1))?
**A.** The value was “inhibits inflammatory response to LPS in blood to an equal extent”.

**Q.** And the “plasma level of TNF-α” value ([4]; n=4/group, *P<0.05 vs. saline-treated LPS (Fig. 1A))?
**A.** The value was “reduces plasma levels of TNF-α”.

**Q.** What about the “plasma level of IL-6” value ([4]; n=4/group, *P<0.05 vs. saline-treated LPS (Fig. 1B)) of the same compound?
**A.** Its value is “reduces plasma levels of TNF-α (A) and IL-6”.

**Q.** And the “inhibition of binding of LPS to leukocytes” value [5]?
**A.** The value was “inhibit binding of LPS to leukocytes”.

**Q.** What about the “cholesterol efflux and lipid raft abundance” value [6] of the same compound?
**A.** Its value is “stimulate cholesterol efflux and reduce lipid raft abundance”.

**Q.** What about the effective concentration ([7]; concentration at which effective, L-4F) of the same compound?
**A.** The effective concentration was 40 µg/mL.

**Q.** What about the “activation of neutrophils by septic patient serum” value [7] of the same compound?
**A.** Its value is “inhibits activation of human neutrophils stimulated by septic patient serum”.

**Q.** What about the “binding affinity for pro-inflammatory oxidized lipids” value [8] of the same compound?
**A.** Its value is “binds pro-inflammatory oxidized lipids with higher affinity than human apoA-I”.

**Q.** And the tolerability in rodents [9]?
**A.** The tolerability in rodents was “rodents were able to tolerate L-4F in much higher doses”.

**Q.** What about the “competition with LBP for binding with LPS” value [10] of the same compound?
**A.** The value was “compete with lipopolysaccharide-binding protein (LBP) for binding with LPS”.

**Q.** And the “HDL-associated paraoxonase 1 activity” value [11]?
**A.** Its value is “increasing HDL-associated paraoxonase 1 activity”.

**Q.** What about the “effect of agent alone on CD11b expression and lipid raft abundance” value [12] of the same compound?
**A.** Its value is “Neither L-4F alone nor apoA-I alone affects CD11b expression and lipid raft abundance”.

**Q.** What about the “effect on LPS-increased CD11b expression” value [12] of the same compound?
**A.** The value was “inhibits this effect (P<0.05 vs. LPS, for L-4F at all time points and for apoA-I at 30 min, Fig. 3A, B)”.

**Q.** What about the “effect on LPS-increased lipid raft abundance” value [12] of the same compound?
**A.** The value was “inhibits this effect (P<0.05 vs. LPS, for L-4F at 1 and 3 h and for apoA-I at 1 h, Fig. 3C, D)”.

**Q.** What about the “effect on IL-8-induced increase of CD11b expression” value [13] of the same compound?
**A.** Its value is “only minimal effect”.

**Q.** And the “effect on IL-8-induced increase of lipid rafts abundance” value [13]?
**A.** The value was “only minimal effect”.

**Q.** And the “effect on LPS-mediated chemiluminescence (rate and peak)” value ([14]; 5 or 50 % donor plasma, lucigenin 10 μM, 3 h at 37 °C, both P<0.05 vs. LPS (Fig. 9))?
**A.** Its value is “inhibits the rate as well as peak of LPS-mediated chemiluminescence”.

**Q.** And the “inhibition of oxidative stress, L-4F vs. apoA-I” value ([14]; 50 % plasma, 3 h, NS vs. apoA-I)?
**A.** The value was “the inhibitory effects of L-4F and apoA-I are similar”.

**Q.** What about the “effect on TNF-α-mediated elevation of plasma IL-6” value [15] of the same compound?
**A.** Its value is “does not reduce plasma levels of IL-6”.

**Q.** What about the water solubility [16] of the same compound?
**A.** Its water solubility is “high water solubility”.

**Q.** Which “disruption of rafts and responsiveness of macrophages to LPS” value [17] does the source give for Ac-DWFKAFYDKVAEKFKEAF-NH2 [4F] here?
**A.** Its value is “attenuating the responsiveness of macrophages to LPS”.

**Q.** What about the anti-inflammatory properties ([3]; ref [19]–[21]) of the same compound?
**A.** The anti-inflammatory properties was “exerts strong anti-inflammatory properties”.

**Q.** What about the “safety profile in patients” value [18] of the same compound?
**A.** The value was “acceptable safety profile”.
